Measurements taken from patent US20120165332A1, “SULFONAMIDES AND SULFAMIDES AS ZAP-70 INHIBITORS” (Cellzome Limited, priority 2009, published 2012).

Target: T1, ZAP-70 (Homo sapiens, UniProt P43403)
T1 construct: endogenous in cells; host or cells: cell lysate
T1 sequence (P43403 1-619): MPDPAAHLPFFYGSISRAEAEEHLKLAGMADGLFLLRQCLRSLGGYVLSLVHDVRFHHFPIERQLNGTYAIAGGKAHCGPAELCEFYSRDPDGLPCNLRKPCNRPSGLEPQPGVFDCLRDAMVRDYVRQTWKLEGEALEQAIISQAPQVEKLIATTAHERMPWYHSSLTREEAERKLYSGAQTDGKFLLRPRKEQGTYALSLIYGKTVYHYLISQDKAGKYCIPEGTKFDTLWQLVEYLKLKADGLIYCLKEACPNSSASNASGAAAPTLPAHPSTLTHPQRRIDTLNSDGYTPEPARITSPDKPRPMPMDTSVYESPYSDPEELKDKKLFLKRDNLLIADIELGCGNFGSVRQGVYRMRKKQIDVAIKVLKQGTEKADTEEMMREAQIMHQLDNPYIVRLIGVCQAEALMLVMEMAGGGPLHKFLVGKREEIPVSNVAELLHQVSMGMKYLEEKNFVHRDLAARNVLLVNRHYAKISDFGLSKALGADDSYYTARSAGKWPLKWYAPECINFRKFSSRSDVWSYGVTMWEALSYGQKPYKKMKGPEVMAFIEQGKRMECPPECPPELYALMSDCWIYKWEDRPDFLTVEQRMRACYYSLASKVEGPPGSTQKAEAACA
Assay: ZAP-70 kinobeads assay
Type: binding
Details: cell lysate, affinity matrix with immobilized aminopyrido-pyrimidine ligand 24, dot blot detection
Description: The compounds of the present invention as described in the previous examples can be tested in the ZAP-70 kinobeads assay as described (EP-A 1862802 and WO-A 2007/137867). Briefly, test compounds (at various concentrations) and the affinity matrix with the immobilized aminopyrido-pyrimidine ligand 24 are added to cell lysate aliquots and allowed to bind to the proteins in the lysate sample. After the incubation time the beads with captured proteins are separated from the lysate. Bound proteins are then eluted and the presence ZAP-70 is detected and quantified using a specific antibody in a dot blot procedure and the Odyssey infrared detection system.

Compound	IC50
COc1cc(Nc2ncc(F)c(Nc3cccc(C)c3N(CCO)S(C)(=O)=O)n2)cc(OC)c1OC [Example 15, N-(2-(5-fluoro-2-(3,4,5-trimethoxyphenylamino)pyrimidin-4-ylamino)-6-methylphenyl)-N-(2-hydroxyethyl)methanesulfonamide]	1000 to 10000 nM
COC(=O)CN(c1c(C)cccc1Nc1nc(Nc2cc(OC)c(OC)c(OC)c2)ncc1F)S(C)(=O)=O [Example 18, Methyl 2-(N-(2-(5-fluoro-2-(3,4,5-trimethoxyphenylamino)pyrimidin-4-ylamino)-6-methylphenyl)methylsulfonamido)acetate]	1000 to 10000 nM
COc1cc(Nc2ncc(F)c(Nc3cccc(C)c3N(CCC(N)=O)S(C)(=O)=O)n2)cc(OC)c1OC [Example 23, 3-(N-(2-(5-fluoro-2-(3,4,5-trimethoxyphenylamino)pyrimidin-4-ylamino)-6-methylphenyl)methylsulfonamido)propanamide]	1000 to 10000 nM
COc1cc(Nc2ncc(F)c(Nc3ccccc3N(CCN3CCCC3)S(C)(=O)=O)n2)cc(OC)c1OC [Example 33, N-(2-(5-fluoro-2-(3,4,5-trimethoxyphenylamino)pyrimidin-4-ylamino)phenyl)-N-(2-(pyrrolidin-1-yl)ethyl)methanesulfonamide]	1000 to 10000 nM
COc1cc(Nc2ncc(F)c(Nc3cccc(C)c3N(CC#N)S(C)(=O)=O)n2)cc(OC)c1OC [Example 17, N-(cyanomethyl)-N-(2-(5-fluoro-2-(3,4,5-trimethoxyphenylamino)pyrimidin-4-ylamino)-6-methylphenyl)methanesulfonamide]	1000 to 10000 nM
COCCN(c1c(C)cccc1Nc1nc(Nc2cc(OC)c(OC)c(OC)c2)ncc1F)S(C)(=O)=O [Example 13]	1000 to 10000 nM
COc1cc(Nc2ncc(F)c(Nc3cccc(C)c3N(CCNC=O)S(C)(=O)=O)n2)cc(OC)c1OC [Example 20, N-(2-(N-(2-(5-fluoro-2-(3,4,5-trimethoxyphenylamino)pyrimidin-4-ylamino)-6-methylphenyl)methylsulfonamido)ethyl)formamide]	100 to 1000 nM
COc1cc(Nc2ncc(F)c(Nc3cccc(C)c3N(CCN)S(C)(=O)=O)n2)cc(OC)c1OC [Example 19, N-(2-aminoethyl)-N-(2-(5-fluoro-2-(3,4,5-trimethoxyphenylamino)pyrimidin-4-ylamino)-6-methylphenyl)methanesulfonamide]	100 to 1000 nM
COc1cc(Nc2ncc(F)c(Nc3cccc(C)c3N(CCNC(C)=O)S(C)(=O)=O)n2)cc(OC)c1OC [Example 26, N-(2-(N-(2-(5-fluoro-2-(3,4,5-trimethoxyphenylamino)pyrimidin-4-ylamino)-6-methylphenyl)methylsulfonamido)ethyl)acetamide]	100 to 1000 nM
COc1cc(Nc2ncc(F)c(Nc3cccc(C)c3N(CCCN)S(C)(=O)=O)n2)cc(OC)c1OC [Example 21, N-(3-aminopropyl)-N-(2-(5-fluoro-2-(3,4,5-trimethoxyphenylamino)pyrimidin-4-ylamino)-6-methylphenyl)methanesulfonamide]	100 to 1000 nM
COc1ccc(Nc2nc(Nc3cc(OC)c(OC)c(OC)c3)ncc2Cl)c(N(CN2CCCC2=O)S(C)(=O)=O)c1 [Example 3, N-(2-(5-chloro-2-(3,4,5-trimethoxyphenylamino)pyrimidin-4-ylamino)-5-methoxyphenyl)-N-((2-oxopyrrolidin-1-yl)methyl)methanesulfonamide]	1000 to 10000 nM
COC(=O)CCN(c1c(C)cccc1Nc1nc(Nc2cc(OC)c(OC)c(OC)c2)ncc1F)S(C)(=O)=O [Example 22, Methyl 3-(N-(2-(5-fluoro-2-(3,4,5-trimethoxyphenylamino)pyrimidin-4-ylamino)-6-methylphenyl)methylsulfonamido)propanoate]	1000 to 10000 nM
COc1cc(Nc2ncc(F)c(Nc3cccc(C)c3N(CC(N)=O)S(C)(=O)=O)n2)cc(OC)c1OC [Example 14, 2-(N-(2-(5-fluoro-2-(3,4,5-trimethoxyphenylamino)pyrimidin-4-ylamino)-6-methylphenyl)methylsulfonamido) acetamide]	1000 to 10000 nM
COc1ccc(Nc2ncc(Cl)c(Nc3ccc(OC)cc3N(CCNC=O)S(C)(=O)=O)n2)c(OC)c1 [Example 11]	100 to 1000 nM
COc1ccc(Nc2nc(Nc3cc(OC)c(OC)c(OC)c3)ncc2Cl)c(N(Cc2cnc[nH]2)S(C)(=O)=O)c1 [Example 1, N-((1H-imidazol-5-yl)methyl)-N-(2-(5-chloro-2-(3,4,5-trimethoxyphenylamino)pyrimidin-4-ylamino)-5-methoxyphenyl)methanesulfonamide]	100 to 1000 nM
COc1cc(Nc2ncc(F)c(Nc3cccc(C)c3N(CCCC(N)=O)S(C)(=O)=O)n2)cc(OC)c1OC [Example 25, 4-(N-(2-(5-fluoro-2-(3,4,5-trimethoxyphenylamino)pyrimidin-4-ylamino)-6-methylphenyl)methylsulfonamido)butanamide]	1000 to 10000 nM
COc1cc(Nc2ncc(F)c(Nc3cccc(C)c3N(CCCC#N)S(C)(=O)=O)n2)cc(OC)c1OC [Example 24, N-(3-cyanopropyl)-N-(2-(5-fluoro-2-(3,4,5-trimethoxyphenylamino)pyrimidin-4-ylamino)-6-methylphenyl)methanesulfonamide]	1000 to 10000 nM
COc1ccc(Nc2nc(Nc3cc(OC)c(OC)c(OC)c3)ncc2Cl)c(N(C[C@H]2CCC(=O)N2)S(C)(=O)=O)c1 [Example 5, (R)—N-(2-(5-chloro-2-(3,4,5-trimethoxyphenylamino)pyrimidin-4-ylamino)-5-methoxyphenyl)-N-((5-oxopyrrolidin-2-yl)methyl)methanesulfonamide]	1000 to 10000 nM
CS(=O)(=O)N(CCN1CCOCC1)c1ccccc1Nc1nc(Nc2cccc(O)c2)ncc1F [Example 32, N-(2-(5-fluoro-2-(3-hydroxyphenylamino)pyrimidin-4-ylamino)phenyl)-N-(2-morpholinoethyl)methanesulfonamide]	1000 to 10000 nM
COc1ccc(Nc2nc(Nc3ccnn3C)ncc2Cl)c(N(C[C@H]2CCC(=O)N2)S(C)(=O)=O)c1 [Example 31]	1000 to 10000 nM

Further lines, results first:

IC50	Compound
100 to 1000 nM	COc1cc(Nc2ncc(F)c(Nc3cccc(C)c3N(CCC#N)S(C)(=O)=O)n2)cc(OC)c1OC [Example 16, N-(2-cyanoethyl)-N-(2-(5-fluoro-2-(3,4,5-trimethoxyphenylamino)pyrimidin-4-ylamino)-6-methylphenyl)methanesulfonamide]
100 to 1000 nM	COc1cc(Nc2ncc(F)c(Nc3cccc(C)c3N(CCCNC=O)S(C)(=O)=O)n2)cc(OC)c1OC [Example 28, N-(3-(N-(2-(5-fluoro-2-(3,4,5-trimethoxyphenylamino)pyrimidin-4-ylamino)-6-methylphenyl)methylsulfonamido)propyl)formamide]
100 to 1000 nM	COc1cc(Nc2ncc(F)c(Nc3cccc(C)c3N(CCCNC(C)=O)S(C)(=O)=O)n2)cc(OC)c1OC [Example 27, N-(3-(N-(2-(5-fluoro-2-(3,4,5-trimethoxyphenylamino)pyrimidin-4-ylamino)-6-methylphenyl)methylsulfonamido)propyl)acetamide]
≤ 100 nM	COc1ccc(Nc2nc(Nc3cc(OC)c(OC)cc3C)ncc2Cl)c(N(CCN)S(C)(=O)=O)c1 [Example 9, N-(2-aminoethyl)-N-(2-(5-chloro-2-(4,5-dimethoxy-2-methylphenylamino)pyrimidin-4-ylamino)-5-methoxyphenyl)methanesulfonamide]
≤ 100 nM	COc1ccc(Nc2nc(Nc3cc(OC)c(OC)c(OC)c3)ncc2Cl)c(N(C[C@@H]2CCC(=O)N2)S(C)(=O)=O)c1 [Example 4, (S)—N-(2-(5-chloro-2-(3,4,5-trimethoxyphenylamino)pyrimidin-4-ylamino)-5-methoxyphenyl)-N-((5-oxopyrrolidin-2-yl)methyl)methanesulfonamide]
≤ 100 nM	COc1cc(Nc2ncc(Cl)c(Nc3ccccc3N(CCNC=O)S(C)(=O)=O)n2)cc(OC)c1OC [Example 2, N-(2-(N-(2-(5-chloro-2-(3,4,5-trimethoxyphenylamino)pyrimidin-4-ylamino)phenyl)methylsulfonamido)ethyl)formamide]
≤ 100 nM	COc1ccc(Nc2nc(Nc3cc(OC)c(OC)c(OC)c3)ncc2Cl)c(N(CCNC(C)=O)S(C)(=O)=O)c1 [Example 30]
≤ 100 nM	COc1ccc(Nc2nc(Nc3cc(OC)c(OC)c(OC)c3)ncc2Cl)c(N(CCCNC(C)=O)S(C)(=O)=O)c1 [Example 29, N-(3-(N-(2-(5-chloro-2-(3,4,5-trimethoxyphenylamino)pyrimidin-4-ylamino)-5-methoxyphenyl)methylsulfonamido)propyl)acetamide]
≤ 100 nM	COc1ccc(Nc2nc(Nc3cc(OC)c(OC)c(OC)c3)ncc2Cl)c(N(CCN)S(C)(=O)=O)c1 [Example 7, N-(2-aminoethyl)-N-(2-(5-chloro-2-(3,4,5-trimethoxyphenylamino)pyrimidin-4-ylamino)-5-methoxyphenyl)methanesulfonamide]
≤ 100 nM	COc1ccc(Nc2nc(Nc3cc(OC)c(OC)c(OC)c3)ncc2Cl)c(N(CCNC=O)S(C)(=O)=O)c1 [Example 8]
